From ChEMBL document CHEMBL5625210, “5-Cyano substituted diarylpyridines as potent HIV-1 NNRTIs: Rational design, synthesis, and activity evaluation” (Eur J Med Chem, 2023)

Columns and labels:
[1] = system: Human immunodeficiency virus 2; experiment: Antiviral activity against wild type HIV-2 ROD infected in human MT4 cells assessed as protection against virus-induced cytopathic effect incubated for 5 days by MTT assay; assay type: functional, organism-based; conditions: Human immunodeficiency virus 2, ROD, MT4, 120 h
[2] = Cytotoxicity against human MT4 cells assessed as reduction in cell viability incubated for 5 days by MTT assay; assay type: toxicity, cell-based; conditions: time 5 day
[3] = system: Human immunodeficiency virus 1; experiment: Antiviral activity against HIV-1 E138K mutant infected in human MT4 cells assessed as protection against virus-induced cytopathic effect incubated for 5 days by MTT assay; assay type: functional, organism-based; conditions: Human immunodeficiency virus 1, MT4, 120 h
[4] = system: Human immunodeficiency virus 1; experiment: Antiviral activity against HIV-1 F227L/V106A mutant infected in human MT4 cells assessed as protection against virus-induced cytopathic effect incubated for 5 days by MTT assay; assay type: functional, organism-based; conditions: Human immunodeficiency virus 1, MT4, 120 h
[5] = system: Human immunodeficiency virus 1; experiment: microbe, parasite or virus in culture; conditions: Human immunodeficiency virus 1, MT4, 120 h
Description: Antiviral activity against HIV-1 RES056 mutant infected in human MT4 cells assessed as protection against virus-induced cytopathic effect incubated for 5 days by MTT assay

in vitro = conditions: human, MT4 cells
Description: Selectivity index, ratio of CC50 for cytotoxicity against human MT4 cells to EC50 for antiviral activity against wild type HIV-1 IIIB infected in human MT4 cells

[6] = system: Human immunodeficiency virus 1; experiment: Antiviral activity against HIV-1 Y188L mutant infected in human MT4 cells assessed as protection against virus-induced cytopathic effect incubated for 5 days by MTT assay; assay type: functional, organism-based; conditions: Human immunodeficiency virus 1, MT4, 120 h
[7] = system: Human immunodeficiency virus 1; experiment: Antiviral activity against HIV-1 Y181C mutant infected in human MT4 cells assessed as protection against virus-induced cytopathic effect incubated for 5 days by MTT assay; assay type: functional, organism-based; conditions: Human immunodeficiency virus 1, MT4, 120 h
[8] = system: Human immunodeficiency virus 1; experiment: Antiviral activity against wild type HIV-1 IIIB infected in human MT4 cells assessed as protection against virus-induced cytopathic effect incubated for 5 days by MTT assay; assay type: functional, organism-based; conditions: Human immunodeficiency virus 1, IIIB, MT4, 120 h
[9] = system: Human immunodeficiency virus 1; experiment: Antiviral activity against HIV-1 K103N mutant infected in human MT4 cells assessed as protection against virus-induced cytopathic effect incubated for 5 days by MTT assay; assay type: functional, organism-based; conditions: Human immunodeficiency virus 1, MT4, 120 h
[10] = system: Human immunodeficiency virus 1; experiment: Antiviral activity against HIV-1 […] mutant infected in human MT4 cells assessed as protection against virus-induced cytopathic effect incubated for 5 days by MTT assay; assay type: functional, organism-based; conditions: Human immunodeficiency virus 1, MT4, 120 h
[11] = molecular target: Human immunodeficiency virus type 1 reverse transcriptase (Human immunodeficiency virus 1, UniProt Q72547); experiment: Inhibition of wild type HIV-1 reverse transcriptase assessed as inhibition of biotin-dUTP incorporation using ABTS as substrate incubated for 1 hrs by ELISA analysis

Row | Structure (SMILES) | EC50 [1] [nM] | CC50 at 120 h [2] [nM] | EC50 [3] [nM] | EC50 [4] [nM] | EC50 [5] [nM] | selectivity ratio (in vitro) | EC50 [6] [nM] | EC50 [7] [nM] | EC50 [8] [nM] | EC50 [9] [nM] | EC50 [10] [nM] | IC50 [11] [nM]
1 | Cc1cn([C@@H]2C[C@@H](N=[N+]=[N-])[C@H](CO)O2)c(=O)[nH]c1=O | 0.036 | > 7480 | 23.6 | 37.8 | 28.8 | > 250 | 21 | 22.1 | 30 | 29.6 | 10.5 | 
2 | Cc1cc(C#N)cc(C)c1Oc1nc(NC2CCN(Cc3ccc(S(C)(=O)=O)cc3)CC2)c(C#N)cc1Cl | > 227 | > 227000 |  |  |  | > 10400 |  |  | 21.8 |  |  | 449
3 | Cc1cc(C#N)cc(C)c1Oc1ccc(C#N)c(Nc2ccc(C#N)c(C#N)c2)n1 | > 320 | > 320000 |  |  |  | > 2780 |  |  | 115 |  |  | 697
4 | Cc1cc(C#N)cc(C)c1Oc1nc(Nc2ccc(C#N)cc2)c(C#N)cc1Cl | > 240 | 240000 |  |  |  | 8340 |  |  | 28.7 |  |  | 153
5 | Cc1cc(C#N)cc(C)c1Oc1nc(NC2CCN(Cc3ccc(S(N)(=O)=O)cc3)CC2)c(C#N)cc1Cl | > 22.6 | 22600 |  |  |  | 691 |  |  | 32.7 |  |  | 466
6 | Cc1cc(C#N)cc(C)c1Oc1nc(Nc2ccc(C#N)c(F)c2)c(C#N)cc1F | > 218 | 218000 | 141 | 710 | > 218000 | 20900 | 16700 | 1930 | 10.4 | 540 | 316 | 143
7 | Cc1cc(C#N)cc(C)c1Oc1nc(Nc2ccc(C#N)c(C#N)c2)c(C#N)cc1Cl | > 202 | 202000 | 287 | 2250 | > 202000 | 14300 | > 202000 | 1120 | 14.1 | 233 | 313 | 144
8 | Cc1cc(C#N)cc(C)c1Oc1ccc(C#N)c(Nc2ccc(C#N)cc2)n1 | > 326 | > 65200 | 54.8 | 10900 | > 65200 | > 8330 | ≥ 33000 | 1540 | 7.82 | 446 | 123 | 94
9 | Cc1cc(C#N)cc(C)c1Oc1nc(NC2CCN(Cc3ccc(S(N)(=O)=O)cc3)CC2)c(C#N)cc1F | > 25.2 | 25200 | 52.4 | 234 | 260 | 2250 | 157 | 44.9 | 11.2 | 16.8 | 43 | 292
10 | Cc1cc(C#N)cc(C)c1Oc1ccc(C#N)c(NC2CCN(Cc3ccc(S(N)(=O)=O)cc3)CC2)n1 | > 21.8 | 21800 | 19.4 | 194 | 2780 | 5630 | 114 | 36.8 | 3.87 | 19.4 | 73.6 | 205
11 | Cc1cc(C#N)cc(C)c1Oc1ccc(C#N)c(Nc2ccc(CN3CCN(S(=O)(=O)N(C)C)CC3)cc2)n1 | > 5.17 | 5170 |  |  |  | 26 |  |  | 197 |  |  | 1550
12 | Cc1cc(C#N)cc(C)c1Oc1nc(Nc2ccc(C#N)cc2)c(C#N)cc1F | > 311 | > 62300 | 341 | ≥ 17400 | > 62300 | > 8330 | > 62300 | 22400 | 7.47 | 2040 | 1140 | 112
13 | Cc1cc(C#N)cc(C)c1Oc1nc(Nc2ccc(C#N)c(F)c2)c(C#N)cc1Cl | > 282 | 282000 |  |  |  | 11300 |  |  | 25 |  |  | 98
14 | Cc1cc(C#N)cc(C)c1Oc1nc(Nc2ccc(CN3CCN(S(=O)(=O)N(C)C)CC3)cc2)c(C#N)cc1Cl | > 178 | 178000 |  |  |  | 2580 |  |  | 69 |  |  | 686
15 | Cc1cc(C#N)cc(C)c1Oc1nc(Nc2ccc(CN3CCN(S(C)(=O)=O)CC3)cc2)c(C#N)cc1F | > 213 | 213000 |  |  |  | 4740 |  |  | 44.9 |  |  | 294
16 | Cc1cc(C#N)cc(C)c1Oc1nc(Nc2ccc(CN3CCN(S(=O)(=O)N(C)C)CC3)cc2)c(C#N)cc1F | > 149 | 149000 |  |  |  | 744 |  |  | 200 |  |  | 2600
17 | Cc1cc(C#N)cc(C)c1Oc1nc(NC2CCN(Cc3ccc(S(C)(=O)=O)cc3)CC2)c(C#N)cc1F | > 27 | 27500 | 18.7 | 67.5 | 171 | 4890 | 73.1 | 28.1 | 5.62 | 9.37 | 22.5 | 341
18 | Cc1cc(C#N)cc(C)c1Oc1nc(Nc2ccc(CN3CCN(S(C)(=O)=O)CC3)cc2)c(C#N)cc1Cl | > 208 | 208000 | 131 | 276 | > 208000 | 14300 | 2960 | 555 | 14.5 | 633 | 238 | 392
19 | Cc1cc(C#N)cc(C)c1Oc1ccc(C#N)c(NC2CCN(Cc3ccc(C(N)=O)cc3)CC2)n1 | > 28.6 | 28600 | 50 | 1020 | 4250 | 3440 | 348 | 110 | 8.32 | 110 | 318 | 256
20 | Cc1cc(C#N)cc(C)c1Oc1ccc(C#N)c(NC2CCN(Cc3ccc(S(C)(=O)=O)cc3)CC2)n1 | > 19.1 | 19100 | 211 | 182 | 7180 | 3290 | 244 | 38.8 | 5.82 | 34.9 | 136 | 429
21 | Cc1cc(C#N)cc(C)c1Oc1ccc(C#N)c(Nc2ccc(CN3CCN(S(C)(=O)=O)CC3)cc2)n1 | > 18 | 18000 |  |  |  | 444 |  |  | 40.7 |  |  | 277
22 | Cc1cc(C#N)cc(C)c1Oc1ccc(C#N)c(Nc2ccc(C#N)c(F)c2)n1 | > 27.3 | 27300 |  |  |  | 19 |  |  | 1460 |  |  | 12000
23 | Cc1cc(C#N)cc(C)c1Oc1nc(NC2CCN(Cc3ccc(C(N)=O)cc3)CC2)c(C#N)cc1F | > 24.5 | 24100 | 26.1 | 347 | 3590 | 4010 | 227 | 84.2 | 6.02 | 44.1 | 100 | 303
24 | Cc1cc(C#N)cc(C)c1Oc1nc(NC2CCN(Cc3ccc(C(N)=O)cc3)CC2)c(C#N)cc1Cl | > 154 | 154000 | 33 | 357 | 2440 | 26500 | 221 | 40.8 | 5.83 | 31.1 | 66 | 402
25 | Cc1cc(C#N)cc(C)c1Oc1nc(Nc2ccc(C#N)c(C#N)c2)c(C#N)cc1F | > 306 | > 306000 |  |  |  | > 11400 |  |  | 26.9 |  |  | 230
26 | O=C1Nc2ccc(Cl)cc2[C@@](C#CC2CC2)(C(F)(F)F)O1 [EFAVIRENZ] |  | > 6340 | 6.34 | 890 |  |  | 355 | 6.34 | 2.53 | 114 | 31.8 | 
27 | Cc1cc(C#N)cc(C)c1Oc1nc(Nc2ccc(C#N)cc2)nc(N)c1Br [ETRAVIRINE] |  | > 4600 | 4.82 |  | 20.2 |  | 18.4 | 8.96 |  | 3.45 | 4.6 | 
28 | Cc1ccnc2c1NC(=O)c1cccnc1N2C1CC1 [NEVIRAPINE] | > 9.51 | > 9510 | 76.1 | > 9510 | > 9510 |  | > 9510 | 4210 |  |  | 1990 | 
